# Laboratory results from patent publication US12083105B2, “Compositions and methods for treating adult-onset neuronal ceroid lipofuscinosis (Kufs disease)” (CORNELL UNIVERSITY, priority 2020, dated 2024).
# Test system: CSPα^WT, CSPα^L115R and CSPα^L116Δ
# Test: Fe—S cluster disruption of purified recombinant CSPα oligomers (SDS-PAGE, immunoblotting)
# Assay type: biochemical
# Conditions: purified recombinant proteins; 1 mM, 2 h at room temperature; FIG. 2B
# Experimental: FIGS. 2A-2F show dissociation of CSPα ANCL mutant protein oligomers by acid treatment. […] Purified recombinant CSPα^WT, CSPα^L115R CSPα^L116Δ, and SSPα proteins were incubated with either 1 mM L-cysteine for 2 h at room temperature (+L-Cys) or 0.1 N HCl for 20 min at room temperature (+HCl). The proteins were separated by SDS-PAGE, and resultant gels were subjected to immunoblotting using anti-CSPα antibody. A representative immunoblot is shown. Key: Mono=monomer; Oligo=oligomers of higher mass than dimer. Mono=monomer; Oligo=oligomers; grey arrowheads=possible dimer and tetramer. […] The proteins were subjected to increasing trypsin concentrations (0, 0.01, 0.05, 0.1, and 1.0 mg/ml) for 20 min at 4° C., followed by immediate inhibition of trypsin with addition of phenylmethylsulfonyl fluoride (PMSF) to 1 mM. After proteolysis was stopped, CSPα oligomers were disrupted with 0.1 N HCl for 20 min at room temperature, followed by 10 min of boiling in Laemmli sample buffer. The resultant proteins were separated by SDS-PAGE, and subjected to immunoblotting using anti-CSPα antibody. […] The proteins were first incubated with 0.1 N HCl for 20 min at room temperature and then neutralized with 1 M sodium cacodylate to pH 7.0. Limited proteolysis was then performed using increasing trypsin concentrations (0, 0.01, 0.05, 0.1, and 1.0 mg/ml) for 20 min at 4° C. […]
structure (smiles),measurement,value
N[C@@H](CS)C(=O)O [L-cysteine],"disassembly of oligomers of CSPα^WT, CSPα^L115R and CSPα^L116Δ",no significant effect
